From patent US20230348424A1, “HETEROCYCLIC COMPOUNDS AND METHODS OF USE” (Schrödinger, Inc., priority 2022, published 2023)

Assays:
[1] = target: SOS1:KRAS (G12C) interaction (Homo sapiens (Human), UniProt Q07889); test: SOS1 KRas(G12C) FRET Assay; assay type: binding; conditions: 0.5 nM His10-SOS1 (res. 564-1049), 2.5 nM GST-KRAS G12C (res. 1-169), 2 hrs at RT
Outline: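 GST-KRAS G12C (res. 1-169) at 2.5 nM and His10-SOS1 (res. 564-1049) at 0.5 nM, final, in PBS with 0.1% BSA, 5 mM MgCl2, 100 mM KF, 5 mM DTT and 0.5% DMSO. After 2 h at RT, FRET read at 665/615 nm and normalized to DMSO and no-SOS1 controls. IC50 by non-linear regression.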

[2] = target: human SOS1 (Homo sapiens (Human), UniProt Q07889); test: Surface Plasmon Resonance (SPR) SOS1 Binding Assay; conditions: biotinylated SOS1 (res. 564-1049), Biacore 8K, 25° C., kinetic or steady state fit, 1:1 binding; read-out: hSOS1 KD
Outline: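 Biotinylated Avi-tagged human SOS1 (res. 564-1049) captured on streptavidin chip (~3,000 RU); compounds injected 60 s, dissociation 600 s, at 25° C in Tris pH 8.0 buffer with 5% DMSO. Reference- and blank-subtracted; KD from kinetic or steady-state 1:1 binding fit.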

Sequence of SOS1:KRAS (G12C) interaction (Q07889 564-1049, stated change not applied): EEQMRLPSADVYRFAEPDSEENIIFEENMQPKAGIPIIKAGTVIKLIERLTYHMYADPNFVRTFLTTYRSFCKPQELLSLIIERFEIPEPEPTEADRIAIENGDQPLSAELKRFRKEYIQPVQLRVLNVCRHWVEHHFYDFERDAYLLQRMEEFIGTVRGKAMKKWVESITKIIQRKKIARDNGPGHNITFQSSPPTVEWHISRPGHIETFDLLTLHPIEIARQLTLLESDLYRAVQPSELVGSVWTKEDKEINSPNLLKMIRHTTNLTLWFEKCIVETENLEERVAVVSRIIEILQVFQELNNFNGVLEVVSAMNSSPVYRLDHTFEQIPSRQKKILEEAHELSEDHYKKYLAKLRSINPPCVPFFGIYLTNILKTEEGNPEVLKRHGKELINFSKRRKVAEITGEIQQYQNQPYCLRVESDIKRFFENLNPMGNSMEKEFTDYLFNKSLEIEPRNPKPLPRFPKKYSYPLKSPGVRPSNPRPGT
Sequence of human SOS1 (Q07889 564-1049): as the sequence (Q07889 564-1049, stated change not applied) above

SMILES	IC50 [1] [nM]	Kd [2] [nM]
C[C@@H](NC(=O)c1cn(C23CC(C2)C3)c(=O)cc1N[C@@H]1[C@@H]2CC[C@H]1CN(C)C2)c1cccc(C(F)F)c1F (single isomer, unassigned) [Example 134]	9	5
[2H]C([2H])([2H])N1C[C@@H]2[C@H](C1)[C@H]2Nc1cc(=O)n(C23CC(C2)C3)cc1C(=O)N[C@H](C)c1cccc(C(F)F)c1F [Example 91, 1-(bicyclo[1.1.1]pentan-1-yl)-N-((R)-1-(3-(difluoromethyl)-2-fluorophenyl)ethyl)-4-(((1R,5S,6s)-3-(methyl-d3)-3-azabicyclo[3.1.0]hexan-6-yl)amino)-6-oxo-1,6-dihydropyridine-3-carboxamide]	13.9	12
C[C@@H](NC(=O)c1cn(C2(C(F)(F)F)CC2)c(=O)cc1N[C@H]1[C@@H]2CN(C)C[C@@H]21)c1cccc(C(F)F)c1F [Example 119, N-((R)-1-(3-(difluoromethyl)-2-fluorophenyl)ethyl)-4-(((1R,5S,6s)-3-methyl-3-azabicyclo[3.1.0]hexan-6-yl)amino)-6-oxo-1-(1-(trifluoromethyl)cyclopropyl)-1,6-dihydropyridine-3-carboxamide]	36.6	23
C[C@@H](NC(=O)c1cn([C@H]2CCOC[C@@H]2F)c(=O)cc1N[C@H]1[C@@H]2CN(C)C[C@@H]21)c1cccc(C(F)F)c1F [Example 129, N-((R)-1-(3-(difluoromethyl)-2-fluorophenyl)ethyl)-1-((3R,4S)-3-fluorotetrahydro-2H-pyran-4-yl)-4-(((1R,5S,6s)-3-methyl-3-azabicyclo[3.1.0]hexan-6-yl)amino)-6-oxo-1,6-dihydropyridine-3-carboxamide]	25	8
C[C@@H](NC(=O)c1cn(C2(C(F)F)CC2)c(=O)cc1N[C@@H]1CCN(C)C[C@H]1F)c1cccc(C(F)F)c1F (single isomer, unassigned) [Example 65]	50.4	48
C[C@@H](NC(=O)c1cn(C2(C(F)F)CC2)c(=O)cc1NC[C@@H]1CC2CCN1CC2)c1cccc(C(F)F)c1F [Example 85, N-((R)-1-(3-(difluoromethyl)-2-fluorophenyl)ethyl)-1-(1-(difluoromethyl)cyclopropyl)-6-oxo-4-((((S)-quinuclidin-2-yl)methyl)amino)-1,6-dihydropyridine-3-carboxamide]	26.1	12
C[C@@H](NC(=O)c1cn(C2(C(F)F)CC2)c(=O)cc1N[C@H]1[C@@H]2CN(C)C[C@@H]21)c1cccc(C(C)(F)F)c1F [Example 121, N-((R)-1-(3-(1,1-difluoroethyl)-2-fluorophenyl)ethyl)-1-(1-(difluoromethyl)cyclopropyl)-4-(((1R,5S,6s)-3-methyl-3-azabicyclo[3.1.0]hexan-6-yl)amino)-6-oxo-1,6-dihydropyridine-3-carboxamide]	28.9	21
Cc1c([C@@H](C)NC(=O)c2cn(C3CCOCC3)c(=O)cc2NCC2CN(C)C2)cccc1C(F)(F)F [Example 8, (R)-N-(1-(2-methyl-3-(trifluoromethyl)phenyl)ethyl)-4-(((1-methylazetidin-3-yl)methyl)amino)-6-oxo-1-(tetrahydro-2H-pyran-4-yl)-1,6-dihydropyridine-3-carboxamide]	48.6	12
C[C@@H](NC(=O)c1cn([C@@H]2CC23CCC3)c(=O)cc1N[C@H]1[C@@H]2CN(C)C[C@@H]21)c1cccc(C(F)F)c1F (single isomer, unassigned) [Example 118]	16.6	11
C[C@@H](NC(=O)c1cn([C@@]2(C)CCOC2)c(=O)cc1NC1CCN(C)CC1)c1cccc(C(F)F)c1F (single isomer, unassigned) [Example 47]	4.5	2
C[C@@H](NC(=O)c1cn([C@H]2[C@H](C)C2(F)F)c(=O)cc1N[C@H]1[C@@H]2CN(C)C[C@@H]21)c1cccc(C(F)F)c1F (single isomer, unassigned) [Example 110]	23.8	12
C[C@@H](NC(=O)c1cn(C23CC(C2)C3)c(=O)cc1N[C@H]1[C@@H]2CC[C@H]1CN(C)C2)c1cccc(C(F)F)c1F (single isomer, unassigned) [Example 135]	52.1	31
C[C@@H](NC(=O)c1cn([C@@H]2CCOC[C@H]2F)c(=O)cc1N[C@H]1[C@@H]2CN(C)C[C@@H]21)c1cccc(C(F)F)c1F [Example 128, N-((R)-1-(3-(difluoromethyl)-2-fluorophenyl)ethyl)-1-((3S,4R)-3-fluorotetrahydro-2H-pyran-4-yl)-4-(((1R,5S,6s)-3-methyl-3-azabicyclo[3.1.0]hexan-6-yl)amino)-6-oxo-1,6-dihydropyridine-3-carboxamide]	8.2	3

Continued, values first:

IC50 [1] [nM]	Kd [2] [nM]	SMILES
26.3	17	C[C@@H](NC(=O)c1cn(C2(C(F)F)CC2)c(=O)cc1NC1CCN(CCF)CC1)c1cccc(C(F)F)c1F [Example 82, (R)-N-(1-(3-(difluoromethyl)-2-fluorophenyl)ethyl)-1-(1-(difluoromethyl)cyclopropyl)-4-((1-(2-fluoroethyl)piperidin-4-yl)amino)-6-oxo-1,6-dihydropyridine-3-carboxamide]
13.6	6	C[C@@H](NC(=O)c1cn([C@@H]2C[C@H]2C(F)(F)F)c(=O)cc1N[C@H]1[C@@H]2CN(C)C[C@@H]21)c1cccc(C(F)F)c1F (single isomer, unassigned) [Example 112]
4	3	C[C@@H](NC(=O)c1cn([C@H]2CCC2(F)F)c(=O)cc1N[C@H]1[C@@H]2CN(C)C[C@@H]21)c1cccc(C(F)(F)F)c1F (single isomer, unassigned) [Example 144]
3.6	2	C[C@@H]1[C@@H](n2cc(C(=O)N[C@H](C)c3cccc(C(F)F)c3F)c(N[C@H]3[C@@H]4CN(C)C[C@@H]43)cc2=O)C1(F)F (single isomer, unassigned) [Example 109]
37.6	23	CO[C@@H]1CN(C)CC[C@@H]1Nc1cc(=O)n(C2(C(F)F)CC2)cc1C(=O)N[C@H](C)c1cccc(C(F)F)c1F [Example 154, N-((R)-1-(3-(difluoromethyl)-2-fluorophenyl)ethyl)-1-(1-(difluoromethyl)cyclopropyl)-4-(((3R,4S)-3-methoxy-1-methylpiperidin-4-yl)amino)-6-oxo-1,6-dihydropyridine-3-carboxamide]
13	9	C[C@@H](NC(=O)c1cn(C23CC(C(F)F)(C2)C3)c(=O)cc1N[C@H]1[C@@H]2CN(C)C[C@@H]21)c1cccc(C(F)F)c1F [Example 105, N-((R)-1-(3-(difluoromethyl)-2-fluorophenyl)ethyl)-1-(3-(difluoromethyl)bicyclo [1. 1.1]pentan-1-yl)-4-(((1R,5S,6s)-3-methyl-3-azabicyclo[3.1.0]hexan-6-yl)amino)-6-oxo-1,6-dihydropyridine-3-carboxamide]
15.7	9	C[C@@H](NC(=O)c1cn([C@H]2C[C@@H](F)C2)c(=O)cc1N[C@H]1[C@@H]2CN(C)C[C@@H]21)c1cccc(C(F)F)c1F [Example 96, N-((R)-1-(3-(difluoromethyl)-2-fluorophenyl)ethyl)-1-((1s,3S)-3-fluorocyclobutyl)-4-(((1R,5S,6s)-3-methyl-3-azabicyclo[3.1.0]hexan-6-yl)amino)-6-oxo-1,6-dihydropyridine-3-carboxamide]
17.4	13	C[C@@H](NC(=O)c1cn(C2(C(F)F)CC2)c(=O)cc1N[C@@H]1CCNC[C@@H]1F)c1cccc(C(F)F)c1F (single isomer, unassigned) [Example 69]
12.1	8	C[C@@H](NC(=O)c1cn(C23CC(F)(C2)C3)c(=O)cc1N[C@H]1[C@@H]2CN(C)C[C@@H]21)c1cccc(C(F)F)c1F [Example 102, N-((R)-1-(3-(difluoromethyl)-2-fluorophenyl)ethyl)-1-(3-fluorobicyclo[1.1.1]pentan-1-yl)-4-(((1R,5S,6s)-3-methyl-3-azabicyclo[3.1.0]hexan-6-yl)amino)-6-oxo-1,6-dihydropyridine-3-carboxamide]
61.6	56	C[C@@H](NC(=O)c1cn([C@@H]2CCC2(F)F)c(=O)cc1N[C@H]1[C@@H]2CN(C)C[C@@H]21)c1cccc(C(C)(F)F)c1F (single isomer, unassigned) [Example 149]
174	96	C[C@@H](NC(=O)c1cn(C2(C(F)F)CC2)c(=O)cc1NCCN1CCOCC1)c1cccc(C(F)F)c1F [Example 81, (R)-N-(1-(3-(difluoromethyl)-2-fluorophenyl)ethyl)-1-(1-(difluoromethyl)cyclopropyl)-4-((2-morpholinoethyl)amino)-6-oxo-1,6-dihydropyridine-3-carboxamide]
14.1	6	C[C@@H](NC(=O)c1cn([C@H]2CC23CC3)c(=O)cc1N[C@H]1[C@@H]2CN(C)C[C@@H]21)c1cccc(C(F)F)c1F (single isomer, unassigned) [Example 115]
